Experimental data from paper PMC8778818, “Synthesis, Structural Characterization and Anticancer Activity of New 5-Trifluoromethyl-2-thioxo-thiazolo[4,5-d]pyrimidine Derivatives” (Pharmaceuticals, 2022).

Legend:
NCI-H23 = assay: NCI-60 screen, Non-Small Cell Lung Cancer NCI-H23; assay type: cell-based, human; conditions: for Growth of Cells (%): NCI-H23, 10^−5 M one dose
MDA-MB-468 = assay: NCI-60 screen, Breast Cancer MDA-MB-468; assay type: cell-based, human; conditions: for Growth of Cells (%): MDA-MB-468, 10^−5 M one dose
Method: The search for the cytotoxic activity of new derivatives usually starts with in vitro cell-based screening. Four compounds 2b (NSC D-745983/1), 3b (NSC D-766111/1), 4b (NSC D-785591/1) and 4c (NSC D-771706/1), selected by the National Cancer Institute were tested in the anticancer screen for a panel of approximately 60 human disease-oriented tumor cell lines, organized into subpanels derived from nine human cancer types—leukemia, melanoma, and cancers of the lung, colon, brain, breast, ovary, prostate, and kidney. They were initially tested at only one concentration of 10 µM (10^−5 M) for each cell line, which were inoculated and preincubated on a microtiter plate for […]. The results of the one-dose anticancer assay for the tested new compounds are reported as the percentage of the treated cell growth in comparison with untreated no-drug control. This allows for detection of the growth inhibition—values 0–100 and cytotoxicity; negative numbers mean cell death.
Antitumor activity in five dose testing (10^−4−10^−8 M) is expressed by three different dose–response parameters for each of the 60 human tumor cell lines. The GI50 value (molar concentration causing a half-growth inhibition), TGI (molar concentration required for total growth inhibition), which signifies the cytostatic effect, and LC50 (molar concentration of the compound required for 50% cell death). LC50 signifies the cytotoxic effect. […] Nevertheless, the selectivity for GI50 can be seen for several cell lines within subpanel leukemia (SR, log GI50 −6.36) and non-small cell lung cancer (NCI-H522, log GI50 −6.69).
The antitumor screening (NCI-60) was performed at the National Cancer Institute, Bethesda, USA. A total panel of approximately 60 human tumor cell lines derived from nine different cancer types (leukemia, non-small cell lung, colon, brain, melanoma, ovarian, renal, prostate and breast) formed the basis of this in vitro test. The origins and processing of the cell lines used in the study were described previously. First, the compounds were evaluated in a primary anticancer assay at 10^−5 M. Results for each tested compound are reported as the percent of growth of the treated cells. […] The human tumor cell lines of the cancer screening panel were grown in an RMPI 1640 medium containing 5% fetal bovine serum and 2 mM of L-glutamine. Each cell line was inoculated and preincubated at 37 °C, 5% CO2, 95% air and 100% relative humidity for 24 h, before the addition of the test compound into 96-well microtiter plates in 100 µL at plating densities ranging from 5000 to 40,000 cells/well. The density of inoculum depends on the type of tumor cell and its growth characteristics. The screened compounds were solubilized in dimethyl sulfoxide at 400-fold the desired final concentration and stored frozen. At the time of the test agents’ addition, an aliquot of frozen concentrate was thawed and diluted to twice the desired final concentration with complete medium containing 50 µg/mL gentamicin. Next, the test compounds were evaluated at the four additional 10-fold dilutions to reach the final concentrations plus control. Aliquots of 100 µL of the different dilutions (100, 10, 1, […] µM/mL) of the tested compounds were added to microtiter wells, and the culture was incubated for 48 h under the same conditions. Cell were fixed in situ by the addition of 50 µL of cold 50% trichloroacetic acid and incubated for 60 min at 4 °C. The supernatant was discarded; plates were washed five times with water and air-dried. Sulforhodamine B at 0.4% in 1% acetic acid, 100 µL, was added to each well, then plates were incubated for 10 min at room temperature. Unbound dye was removed by washing five times with 1% acetic acid and air dried. The protein-bound stain was solubilized with a […] trizma base and the absorbance was read on an automated plate reader. A wavelength of 515 nm was used to read optical densities. […]

CHO-K1 = assay: MTT cell viability assay, CHO-K1; assay type: cell-based, Chinese Hamster; conditions: Cricetulus griseus; CHO-K1 normal cells, MTT, 72 h, mean ± SD
Method: Twelve compounds (2a-e, 3a-d and 4a-c) at a concentration range of 50–5000 μM were tested for their antiproliferative potential against four human cancer cell lines (A375—melanotic melanoma, C32—amelanotic melanoma, DU145—prostate cancer androgen-independent, MCF-7/WT—breast adenocarcinoma) and two normal cell lines: Chinese Hamster Ovary (CHO-K1) and immortalized human keratinocytes from histologically normal skin (HaCaT).
To determine the antiproliferative activity of newly synthesized compounds, the following cell lines were used: human melanotic melanoma cell line (A375), human amelanotic melanoma cell line (C32), human breast adenocarcinoma cell line (MCF-7/WT), human prostate cancer androgen-independent (DU145) and two normal cell lines: hamster ovarian (CHO-K1) and immortalized human keratinocytes from histologically normal skin (HaCaT). The cells were obtained from the cell line bank of the Department of Molecular and Cellular Biology, Wroclaw Medical University. A375, C32, MCF-7/WT, DU145 and HaCaT cells were grown in a monolayer cultured in Dulbecco’s Modified Eagle’s Medium (DMEM, Sigma-Aldrich, Poznań, Poland), supplemented with 10% of fetal bovine serum (FBS, Gibco, Paisley, UK) and 1% of antibiotics (penicillin/streptomycin, Sigma-Aldrich) and CHO-K1 were grown in HAM’s F-12 medium (Sigma-Aldrich), supplemented with 10% fetal bovine serum (FBS, Gibco) and 1% of antibiotics (penicillin/streptomycin, Sigma-Aldrich). Cell lines were cultured in the polystyrene flasks 25 or 75 cm^2 (Thermo Fisher Scientific, Waltham, MA, USA), which were stored in 37 °C and 5% CO2 in a humidified 95% atmosphere (SteriCult, Thermo Scientific, Alab). The cell medium was exchanged twice a week. The exponentially growing cells were used throughout the experiments. The cells were rinsed with phosphate-buffered saline (PBS, Sigma-Aldrich) and trypsinized by Trypsin-EDTA 0.25% solution (Sigma-Aldrich).
The influence of the compounds was performed in a monolayer culture on cancer and normal cells. Compounds were initially dissolved in DMSO; further dilutions of the compound were performed in Dulbecco’s Modified Eagle’s Medium supplemented with 10% FBS. Compounds were tested in a 50–5000 µM concentration range. In the in vitro experiments, the concentrations of DMSO in the final solution of the compounds were used 0.05%; 0.1%; 0.5%; 1%, respectively.
Cell viability was determined using the MTT colorimetric assay. All cell lines were seeded into 96-well plates to a density of 3 × 10^4 cells/well. After 24 h, the culture supernatants were removed and appropriate dilutions of compounds in the culture medium (200 µL/well) were added to the cells’ monolayer cultures and incubated for an additional 72 h. After 72 h of exposition to the compounds and the removal of the culture medium, cell viability was determined by reducing the yellow dye 3-(4,5-dimethyl-2-thiazol)-2,5-diphenyl-2H-tetrazolium bromide (MTT assay, Sigma Saint Louis, MO, USA; In Vitro Toxicology Assay) to a blue formazan product. The absorbance of the resulting solutions in three duplicate experiments was measured at the wavelength of 560 nm in a microplate reader (EnSpire, Perkin Elmer, Kraków, Poland). MTT assay is a colorimetric method that estimates the rate of metabolism in viable cells. Absorbance is directly proportional to the number of viable cells. All the experiments were performed three times and the mean absorbance values were calculated. The methodology for the evaluation of the growth of human cancer and normal cells was described previously. The cell viability in each group was expressed as a percentage of control (untreated) cells.

SMILES	Growth of Cells (%) (NCI-H23)	Growth of Cells (%) (MDA-MB-468)	IC50 (CHO-K1) [µM]	GI50 (NCI-H23; Homo sapiens, NCI-H23, five doses 10^−4–10^−8 M) [µM]	CC50 (NCI-H23; Homo sapiens, NCI-H23, five doses 10^−4–10^−8 M, read-out: log LC50 (the source's name) (converted)) [µM]	log TGI (NCI-H23; NCI-H23, five doses 10^−4–10^−8 M) [log M]	GI50 (MDA-MB-468; Homo sapiens, MDA-MB-468, five doses 10^−4–10^−8 M) [µM]	CC50 (MDA-MB-468; Homo sapiens, MDA-MB-468, five doses 10^−4–10^−8 M, read-out: log LC50 (the source's name) (converted)) [µM]	log TGI (MDA-MB-468; MDA-MB-468, five doses 10^−4–10^−8 M) [log M]
O=c1[nH]c(C(F)(F)F)nc2c1sc(=S)n2-c1ccccc1 [Compound 2b, 3-phenyl-2-thioxo-5-(trifluoromethyl)-2,3-dihydro[1, 3]thiazolo[4,5-d]pyrimidin-7(6H)-one]	112.30	91.37	319 ± 13.1						
FC(F)(F)c1nc(Cl)c2sc(=S)n(-c3ccccc3)c2n1 [Compound 3b, 7-chloro-3-phenyl-5-(trifluoromethyl)[1, 3]thiazolo[4,5-d]pyrimidine-2(3H)-thione]	99.73	54.38	75.5 ± 1.6	3.09	93.3	−4.95	1.7	7.41	−5.45
CCNc1nc(C(F)(F)F)nc2c1sc(=S)n2-c1ccccc1 [Compound 4b, 7-(ethylamino)-3-phenyl-5-(trifluoromethyl)[1, 3]thiazolo[4,5-d]pyrimidine-2(3H)-thione]	93.44	81.60	237 ± 10.1						
Fc1ccc(CNc2nc(C(F)(F)F)nc3c2sc(=S)n3-c2ccccc2)cc1 [Compound 4c]		96.15	549 ± 24						
